# Laboratory results taken from US8877185B2, “Managing and treating keloids” (priority 2012, dated 2014).
# System: keloid
# Assay: Irritation at the keloid site following application of capsaicin
# Assay type: in vivo, human
# Conditions: topical, rubbed on the keloid; Capzasin HP 0.1% capsaicin
# From the text: In an embodiment, a method of treating or managing a keloid includes firstly removing flurandrenolide tape (or CORDRAN® (flurandrenolide) tape) by peeling it off the keloid and secondly, cleaning the keloid with water and soap, and then drying the keloid with a cloth or a paper towel. After the keloid is dried, graphites ointment is applied in a manner that includes completely or partially covering the keloid with the graphites ointment. Graphites 6C ointment is available in the open market, for example, sold on the interne by a number of companies such as Pomade, Nelson, Boiron, or SBL. […] In an aspect of the method of treatment, witch hazel ointment is applied to the keloid evenly on the keloid either separately or together with graphites. Witch hazel (Hamamelis virginiana) is available in the open market as a cream, lotion ointment or liquid. […] The Hamamelis ointment is allowed to be absorbed by the keloid. In an embodiment, capsaicin cream or ointment is applied to the keloid. Capsaicin, 8-Methyl-N-vanillyl-trans-6-nonenamide) (CH3)2CHCH═CH(CH2)4CONHCH2C6H3-4-(OH)-3—(OCH3)) is the active composition or mixture of chili peppers, which are plants belonging to the genus Capsicum. Capsaicin may be obtained over-the-counter as for example, Capzasin HP 0.1% capsaicin (brand name CHATTEM Registered Trade mark, by Chattem Inc., TN). […]
smiles,measurement,value
"COc1cc(CNC(=O)CCCC/C=C/C(C)C)ccc1O [Capsaicin, 8-Methyl-N-vanillyl-trans-6-nonenamide]",Period of intense irritation or pain at the site of the keloid following application,about 30 minutes
